Test results as given in patent publication US7112578B2, “Methods and compositions for treatment of inflammatory disease” (priority 2000, dated 2006).

What was measured:
Type in all cases: in vivo, human
knee arthritis = assay: Treatment of knee arthritis with a CMO compound and a tetracycline compound (case report)
Procedure: NSAID therapy was halted and tetracycline therapy was added.

[1] = tested on: ankle and knee arthritis pain; assay: Treatment of ankle and knee arthritis with a CMO compound and doxycycline (case report)
bilateral hip arthritis = assay: Treatment of bilateral hip arthritis with a CMO compound and doxycycline (case report)
Procedure: Doxycycline therapy was used for treatment of a middle aged person suffering from bilateral hip arthritis and experiencing severe pain despite increasing doses of NSAIDs. […] Cox-2 inhibitors were substituted for the NSAID agents with better results. However, over time, it was necessary to increase the doses of both agents to two to three times the initial dose in order to maintain adequate symptomatic relief. […] A CMO compound was added and the dosage of the other agents decreased to initial levels. […] The Cox-2 agent was discontinued with no increase in severity of symptoms.

bee sting = assay: Relief of venom induced inflammation, topical treatment of bee stings (case report); settings: bee sting on one arm of the same individual
Procedure: Different bee stings on the same individual were treated by two different methods. A bee sting on one arm was treated with papain with mild relief from pain and swelling. A second bee sting on the other arm was treated with papain, a eutectic mixture of local anaesthetics (EMLA®) and a topical steroid (Kenalog). […] The improved relief from pain was apparent even after all other sensation had returned to normal in the area which received the EMLA® treatment.

[2] = dosage of doxycycline and Cox-2 agent decreased to initial levels

CCCC/C=C\CCCCCCCC(=O)OCCCCCCCCCCCCCCCC [CMO, cetyl myristoleate]
symptoms when the agent was discontinued (knee arthritis; despite increase in dose of the remaining agent): symptoms worsened | symptomatic relief of knee arthritis (knee arthritis; middle-aged, one patient): did not respond well | symptoms when the agent was discontinued ([1]; combination of CMO compound and doxycycline): Symptoms returned | relief of ankle and knee arthritis pain ([1]; female senior citizen, CMO therapy alone): no or minimal relief | side effects after a CMO compound was added (bilateral hip arthritis; [2]): side effects disappeared | symptomatic relief after a CMO compound was added (bilateral hip arthritis; [2]): improved symptomatic relief | symptoms when the agent was discontinued (bilateral hip arthritis; patient on CMO compound and doxycycline): worsening symptomatology

C[C@H]1c2cccc(O)c2C(=O)C2=C(O)[C@]3(O)C(=O)C(C(N)=O)=C(O)[C@@H](N(C)C)[C@@H]3[C@@H](O)[C@@H]21 [doxycycline, reference compound]
side effects at two to three times the initial dose of both agents (bilateral hip arthritis; doxycycline with Cox-2 inhibitor): dizziness, nausea and abdominal pain | side effect, doxycycline added to NSAIDs (bilateral hip arthritis; middle aged person): gastrointestinal upset was problematic

B1: papain (protein, UniProt P00784 134-345, looked up)
Papain: IPEYVDWRQKGAVTPVKNQGSCGSCWAFSAVVTIEGIIKIRTGNLNEYSEQELLDCDRRSYGCNGGYPWSALQLVAQYGIHYRNTYPYEGVQRYCRSREKGPYAAKTDGVRQVQPYNEGALLYSIANQPVSVVLEAAGKDFQLYRGGIFVGPCGNKVDHAVAAVGYGPNYILIKNSWGTGWGENGYIRIKRGTGNSYGVCGLYTSSFYPVKN
notes: proteolytic enzyme applied topically
relief from pain (bee sting): mild relief | swelling (bee sting): mild relief
